The test system of assay [1] is MDA-MB-231 (breast adenoma cancer cell). Briefly: WST-1 cytotoxicity, MDA-MB-231. The assay is classed as cell-based, human. On the procedure:
(§1) Cancer and normal cell lines were purchased from ATCC and stored in liquid nitrogen. HT-29 (colon adenoma cancer), HeLa (cervix adenoma cancer cell), MDA-MB-231 (breast adenoma cancer cell), HEK-293 (embryonic kidney epithelial cell) and PNT-1A (normal prostate cells) cell lines were incubated in DMEM: F-12 and RPMI-1640, including 10% foetal bovine serum (FBS), 100 µg/mL streptomycin/100 IU/mL penicillin, at 37 °C in an incubator containing 5% CO2, 95% air in a humid atmosphere.
(§2) The cytotoxic effects of the substances were evaluated with WST-1 kits (Roche, Germany) in accordance with the manufacturer’s protocols. The cells were planted in 96-well plates (10^4 cells in each well). After incubation for 24 h, the media were discarded and the substances and 5-Fu as the control drug, at doses of 0, 2.5, 5, 10, 25, 50, 100 and 200 µM, were incubated for 24, 48 and 72 h. WST-1 reactive of 10 µL was added to all wells. Following 4-h incubation, the measurements were taken on a plate reader (Spectramax M5) at wavelengths of 450 and 630 nm. Graphs were then created and the IC50 value of each substance was calculated.
On the technique in general: Tetrazolium dyes change colour on reduction, which living cells bring about.

The test system of assay [2] is HEK-293 (embryonic kidney epithelial cell). Kind of assay: WST-1 cytotoxicity, HEK-293. The assay is classed as cell-based. The following applies: normal cell. On the procedure:
as §1, §2

Assay [3] has as its system PNT-1A (normal prostate cells). Kind of assay: WST-1 cytotoxicity, PNT-1A. The assay is classed as cell-based. The note with it: normal cell. How it is done:
as §1, §2

Assay [4] relates to HeLa cells. Kind of assay: BrdU proliferation assay. Format: cell-based, human. The note with it: 0–200 µM. How it is done: The effects of the substances on the proliferation of HeLa cells were investigated using a commercial proliferation kit BrdU (BioVision, Germany) according to the manufacturer’s protocols. After 24 h, the cells were planted in 96-well plates (10^4 cell/mL), the medium was replaced and the substances were administered at doses ranging from 2.5 to 200 µM. After 72 h, the media were discarded, 100 µL 1X of BrdU reactive was added and the samples were incubated in an incubator, containing 5% CO2, 95% fresh air, at 37 °C for 4 h. The medium was then removed, and 100 µL of fixative/denaturation solution was added and incubated for 30 min. 100 µL 1X of the antibody solution BrdU was added and, following 1-h incubation, was washed twice with 300 µL 1X of the washing solution. 100 µL 1X of anti-mouse HRP-linked antibody was added and incubated at room temperature for 1 h. Then, the cells were washed three times with 300 µL 1X of washing solution. The final incubation was performed with 100 µL of TMB substrate solution for 5 min, after which the stop solution was added, and then the reading was taken at a wavelength of 450 nm.

The test system of assay [5] is HeLa cells. Kind of assay: Annexin-V FITC/PI apoptosis by flow cytometry. The assay is classed as cell-based, human. The following applies: Annexin-V FITC. How it is done:
The apoptotic effect of the substances was explored with the commercial FITC Annexin-V Apoptosis Detection Kit I (BD Biosciences, New Jersey, USA) according to the manufacturer’s protocol. The cells were planted in 6-well plates (5 × 10^5 cells/well), and following 24-h incubation, sulphonamide derivative compounds at concentrations of 10–25–50 µM were administered, followed by incubation for 24 h. The cells were raised by trypsin handling and transferred into new tubes within 1X binding buffer, as 1 × 10^6 in each tube, which were incubated for 15 min at room temperature. 5 µL of fluorochrome-conjugated Annexin-V and 5 µL of propidium iodide dyes were then added. 100 µL 1X binding buffer was added to the cells, and they were then centrifuged at 1200 rpm, for 5 min. Finally, the cells were analysed in flow cytometry (BD Via, New Jersey, USA).
(Flow cytometry measures light scatter and fluorescence of single cells or particles in a stream.)

In assay [6] the test system is HeLa cells. Briefly: Intracellular ROS detection. Format: cell-based, human. The following applies: 0–200 μM. On the procedure:
Intracellular free radicals were measured using the Cellular Reactive Oxygen Species Detection Assay Commercial Kit (Red Fluorescence, Abcam, Cambridge, UK, 186027). In this kit, a fluorescence probe that is permeable to the cell is used. When the probe reacts with ROS, it produces red fluorescence. The process was applied following kit protocol. The cells were planted in black plates, as 3 × 10^4 in 100 µL, and incubated for 24 h. Sulphonamide compounds in PBS were administered at doses of 0–200 µM and incubated at 37 °C in an atmosphere of 5% CO2 for 1 h (protected from light). After the compounds were poured out, the wells were filled with 100 µL of ROS Deep Red Working Solution and incubated at 37 °C in an atmosphere of 5% CO2 for 1 h. A fluorometry device (Spectramax, M5) Ex/Em = 650/675 nm (cut off = 665 nm) was used to take the measurements.

For assay [7], the system named is HeLa cells. Briefly: DNA damage γ-H2AX immunofluorescence. The assay is classed as cell-based, human. The note with it: 24 h, concentration dependent. On the procedure: HeLa cells (1 × 10^4/mL) were seeded in 12-well cell culture dishes and after 24 h, they were administered with the sulphonamide derivative compounds at doses of 10–25–50 µM and incubated for 24 h. The cells were washed with PBS and fixed with 100% methanol at −20 °C overnight, which was followed by PBS washing three times for 10 min for each washing. The cells were treated with 0.2% Triton X-100 in a shaker, at room temperature for 5 min. They were washed with PBS, and 1% BSA-containing PBS was then added, and incubation with primary mouse monoclonal anti-γ-H2AX antibody (Cell Signaling Technology, Danvers, MA) was applied at 37 °C for 1 h. The cells were washed with PBS for 5 min three times. Secondary goat anti-mouse Alexa-488-conjugated IgG (Invitrogen, Thermo Fisher Scientific, USA) was administered and the cells were incubated at 37 °C for 20 min, followed by PBS washing for 4–5 min three times. 1 mL 70% EtOH was added and, at +4 °C, released to incubation for 5 min. 1 mL 100% EtOH was added in a shaker, which was then incubated at room temperature for 1–2 min. The nucleus was stained with DAPI and the images were recorded using an Olympus Inverted Fluorescence Microscope (Olympus CKX53, DP73).

Like-named read-outs stand apart in the source and are kept apart here.

As usually defined, the IC50 is the point on the concentration scale where inhibition reaches its midpoint. For `NS(=O)(=O)c1ccc(CCN=Cc2cc(Br)ccc2O)cc1` [Compound 1], the IC50 in assay [1] (WST-1, 48 h, read-out: IC50 MDA-MB-231 48 h) was found to be 68.8 ± 4.65 µM; in assay [1] (WST-1, 72 h, read-out: IC50 MDA-MB-231 72 h) it was 56.7 ± 3.55 µM; in assay [2] (WST-1, 24 h, read-out: IC50 HEK-293 24 h), 59.7 ± 11.2 µM; in assay [2] (WST-1, 48 h, read-out: IC50 HEK-293 48 h) it was 83.6 ± 21.2 µM; in assay [2] (WST-1, 72 h, read-out: IC50 HEK-293 72 h), 35.8 ± 11.2 µM; in assay [3] (WST-1, 48 h, read-out: IC50 PNT-1A 48 h), 86.2 ± 12.1 µM. For the same molecule, the IC50 in assay [3] (WST-1, 72 h, read-out: IC50 PNT-1A 72 h) stood at 197 ± 11.2 µM. Moreover, the “antiproliferative effect on HeLa cells (BrdU ELISA)” value in the assay on HeLa cells [4] was “dose-dependent, strong, antiproliferative effect”. Also, the “dose from which an apoptotic effect was shown” value with HeLa cells [5] is on record as at least 25 µM. Moreover, the “intracellular ROS amount” value in the assay on HeLa cells [6] was “dose-related increase”. Also, the “DNA damage (γ-H2AX foci)” value in the assay on HeLa cells [7] is “increasing γ-H2AX focus points”.

For the origin of these results see publication PMC6052416, “Selective inhibition of carbonic anhydrase-IX by sulphonamide derivatives induces pH and reactive oxygen species-mediated apoptosis in cervical cancer HeLa cells” (Journal of Enzyme Inhibition and Medicinal Chemistry, 2018).
